Data: PubChem BioAssay (NCI)
“And” between values parts separate entries of the source, which are not always exact repeats. Equal entries are not always repeated.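 Assay format: 96-well plates, 48-hour exposure. Here, GI50 denotes the concentration required for 50% inhibition of growth. TGI: concentration producing complete growth inhibition.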

Tests used:
Experiment in all cases: inhibition of tumour cell growth, NCI panel, 48 h
SW-620 colon = system: SW-620 colon
IGROV1 ovarian = system: IGROV1 ovarian
RPMI-8226 leukemia = system: RPMI-8226 leukemia
SF-539 CNS = system: SF-539 CNS
K-562 leukemia = system: K-562 leukemia
COLO 205 colon = system: COLO 205 colon
NCI-H460 lung = system: NCI-H460 lung
MCF7 breast = system: MCF7 breast
HT29 colon = system: HT29 colon
A498 renal = system: A498 renal

O=C(Nc1ccc(F)cc1F)c1cc(Br)ccc1O
GI50 (SW-620 colon): 3.06 µM
TGI (SW-620 colon): 55.9 µM
GI50 (IGROV1 ovarian): 2.18 µM
TGI (IGROV1 ovarian): > 100 µM
GI50 (RPMI-8226 leukemia): 1.69 µM
TGI (RPMI-8226 leukemia): 5.29 µM
GI50 (SF-539 CNS): 2.68 µM
TGI (SF-539 CNS): 10.9 µM
GI50 (K-562 leukemia): 2.42 µM
TGI (K-562 leukemia): > 100 µM
GI50 (COLO 205 colon): 3.75 µM
TGI (COLO 205 colon): 13.8 µM
GI50 (NCI-H460 lung): 2.9 µM
TGI (NCI-H460 lung): > 100 µM
GI50 (MCF7 breast): 2.56 µM
TGI (MCF7 breast): > 100 µM
GI50 (HT29 colon): 3.53 µM
TGI (HT29 colon): > 100 µM
GI50 (A498 renal): 1.07 µM
TGI (A498 renal): 2.75 µM

CC1(C)CC(n2cnc(-c3ccc(F)cc3)c2-c2ccnc(N)n2)CC(C)(C)N1
GI50 (SW-620 colon): 12.1 µM
TGI (SW-620 colon): > 25 µM
GI50 (IGROV1 ovarian): 24.7 µM
TGI (IGROV1 ovarian): > 25 µM
GI50 (RPMI-8226 leukemia): > 25 µM
TGI (RPMI-8226 leukemia): > 25 µM
GI50 (SF-539 CNS): > 25 µM
TGI (SF-539 CNS): > 25 µM
GI50 (K-562 leukemia): > 24.1 µM
TGI (K-562 leukemia): > 25 µM
GI50 (COLO 205 colon): 12.7 µM
TGI (COLO 205 colon): > 25 µM
GI50 (NCI-H460 lung): 11.9 µM
TGI (NCI-H460 lung): > 25 µM
GI50 (MCF7 breast): 6.01 µM
TGI (MCF7 breast): > 19.6 µM
GI50 (HT29 colon): 11.1 µM
TGI (HT29 colon): > 25 µM
GI50 (A498 renal): > 25 µM
TGI (A498 renal): > 25 µM

Cc1cc(-c2nnc(N)nc2-c2ccc(F)cc2)cc(Cl)n1
GI50 (SW-620 colon): > 100 µM
TGI (SW-620 colon): > 100 µM
GI50 (IGROV1 ovarian): > 100 µM
TGI (IGROV1 ovarian): > 100 µM
GI50 (RPMI-8226 leukemia): 37.3 µM
TGI (RPMI-8226 leukemia): > 100 µM
GI50 (SF-539 CNS): > 100 µM
TGI (SF-539 CNS): > 100 µM
GI50 (K-562 leukemia): 59 µM
TGI (K-562 leukemia): > 100 µM
GI50 (COLO 205 colon): > 100 µM
TGI (COLO 205 colon): > 100 µM
GI50 (NCI-H460 lung): > 100 µM
TGI (NCI-H460 lung): > 100 µM
GI50 (MCF7 breast): > 100 µM
TGI (MCF7 breast): > 100 µM
GI50 (HT29 colon): > 100 µM
TGI (HT29 colon): > 100 µM
GI50 (A498 renal): 49 µM
TGI (A498 renal): > 100 µM

C=CCN1C=CC(=O)[C@H](O[Si](C)(C)C(C)(C)C)[C@@H]1/C=C/c1ccccc1
GI50 (SW-620 colon): 14.5 µM
TGI (SW-620 colon): 29.3 µM
GI50 (IGROV1 ovarian): 17.1 µM
TGI (IGROV1 ovarian): 34 µM
GI50 (RPMI-8226 leukemia): 13.6 µM
TGI (RPMI-8226 leukemia): 45.2 µM
GI50 (SF-539 CNS): 16 µM
TGI (SF-539 CNS): 30.1 µM
GI50 (K-562 leukemia): 9.56 µM
TGI (K-562 leukemia): 31.3 µM
GI50 (COLO 205 colon): 4.39 µM
TGI (COLO 205 colon): 16.2 µM
GI50 (NCI-H460 lung): 8.38 µM
TGI (NCI-H460 lung): 23.8 µM
GI50 (MCF7 breast): 8.77 µM
TGI (MCF7 breast): 21.9 µM
GI50 (HT29 colon): 5.39 µM
TGI (HT29 colon): 19 µM
GI50 (A498 renal): 13.2 µM
TGI (A498 renal): 26.1 µM

Cc1occc1C(=S)Nc1ccc(Cl)c(/C=N/OC(C)C)c1
TGI (SW-620 colon): 52.3 µM
TGI (IGROV1 ovarian): > 57.2 µM
TGI (RPMI-8226 leukemia): > 67.6 µM
TGI (SF-539 CNS): 32.9 µM
TGI (K-562 leukemia): > 100 µM
TGI (COLO 205 colon): 37 µM
TGI (NCI-H460 lung): > 57.5 µM
TGI (MCF7 breast): > 51.6 µM
TGI (HT29 colon): 45 µM
TGI (A498 renal): 49.9 µM

C=C1C(=O)[C@@]23CC1C(O)[C@@H](OC(C)=O)[C@@H]2C1(C)C(OC(C)=O)C[C@@H](OC(C)=O)C(C)(C)[C@@H]1C[C@H]3OC(C)=O (some centres undefined)
GI50 (SW-620 colon): 1.7 µM and 1.85 µg/mL
TGI (SW-620 colon): 3.33 µM and 4.57 µg/mL
GI50 (IGROV1 ovarian): > 10 µM and 13.1 µg/mL
TGI (IGROV1 ovarian): > 10 µM and 27.7 µg/mL
GI50 (RPMI-8226 leukemia): 1.55 µM and 0.543 µg/mL
TGI (RPMI-8226 leukemia): 4.28 µM and 3.5 µg/mL
GI50 (SF-539 CNS): 1.69 µM and 3.73 µg/mL
TGI (SF-539 CNS): 3.7 µM and 11.6 µg/mL
GI50 (K-562 leukemia): 1.55 µM and 0.573 µg/mL
TGI (K-562 leukemia): 3.71 µM and 2.86 µg/mL
GI50 (COLO 205 colon): 1.69 µM and 1.72 µg/mL
TGI (COLO 205 colon): 3.15 µM and 3.26 µg/mL
GI50 (NCI-H460 lung): > 10 µM and 7.27 µg/mL
TGI (NCI-H460 lung): > 10 µM and 19.4 µg/mL
GI50 (MCF7 breast): 6.33 µg/mL
TGI (MCF7 breast): 6.7 µM and 19.1 µg/mL
GI50 (HT29 colon): 6.13 µM and 2.61 µg/mL
TGI (HT29 colon): > 10 µM and 7.22 µg/mL
GI50 (A498 renal): 16.3 µg/mL
TGI (A498 renal): > 10 µM and 30.6 µg/mL

NC(=O)c1ccc2c(-c3ccnc(NCCCO)n3)c(-c3ccc(F)cc3)nn2c1
GI50 (SW-620 colon): > 25 µM
TGI (SW-620 colon): > 25 µM
GI50 (IGROV1 ovarian): 12.9 µM
TGI (IGROV1 ovarian): > 25 µM
GI50 (RPMI-8226 leukemia): > 25 µM
TGI (RPMI-8226 leukemia): > 25 µM
GI50 (SF-539 CNS): > 25 µM
TGI (SF-539 CNS): > 25 µM
GI50 (K-562 leukemia): > 25 µM
TGI (K-562 leukemia): > 25 µM
GI50 (COLO 205 colon): > 20.6 µM
TGI (COLO 205 colon): > 25 µM
GI50 (NCI-H460 lung): > 25 µM
TGI (NCI-H460 lung): > 25 µM
GI50 (MCF7 breast): > 16.9 µM
TGI (MCF7 breast): > 25 µM
GI50 (HT29 colon): > 21.2 µM
TGI (HT29 colon): > 25 µM
GI50 (A498 renal): 7.24 µM
TGI (A498 renal): > 25 µM

CCN=c1cc2sc3cc(NCC)c(C)cc3nc-2cc1C
GI50 (SW-620 colon): 0.694 µM
TGI (SW-620 colon): 12.8 µM
GI50 (IGROV1 ovarian): 2.4 µM
TGI (IGROV1 ovarian): 9.21 µM
GI50 (RPMI-8226 leukemia): 0.233 µM
TGI (RPMI-8226 leukemia): 3.45 µM
GI50 (SF-539 CNS): 0.434 µM
TGI (SF-539 CNS): 10.2 µM
GI50 (K-562 leukemia): 0.358 µM
TGI (K-562 leukemia): 16.3 µM
GI50 (COLO 205 colon): 2.15 µM
TGI (COLO 205 colon): 7.78 µM
GI50 (NCI-H460 lung): 0.821 µM
TGI (NCI-H460 lung): 5 µM
GI50 (MCF7 breast): 0.242 µM
TGI (MCF7 breast): 0.937 µM
GI50 (HT29 colon): 2.98 µM
TGI (HT29 colon): 10.4 µM
GI50 (A498 renal): 14 µM
TGI (A498 renal): 53.4 µM

O=C(N/N=C/c1ccccc1Cl)c1ccccc1Nc1ccnc(C(F)(F)F)c1
GI50 (SW-620 colon): 1.53 µM
TGI (SW-620 colon): 14.5 µM
GI50 (IGROV1 ovarian): 1.87 µM
TGI (IGROV1 ovarian): 10.3 µM
GI50 (RPMI-8226 leukemia): 0.47 µM
TGI (RPMI-8226 leukemia): 2.74 µM
GI50 (SF-539 CNS): 1.6 µM
TGI (SF-539 CNS): 3.7 µM
GI50 (K-562 leukemia): 2.16 µM
GI50 (COLO 205 colon): 1.55 µM
TGI (COLO 205 colon): 3.25 µM
GI50 (NCI-H460 lung): 0.768 µM
TGI (NCI-H460 lung): 2.38 µM
GI50 (MCF7 breast): 0.706 µM
TGI (MCF7 breast): 4.52 µM
GI50 (HT29 colon): 3.56 µM
TGI (HT29 colon): > 100 µM
GI50 (A498 renal): 1.76 µM
TGI (A498 renal): 5.99 µM
